US10238641B2, “Materials and methods for diagnosis, prevention and/or treatment of stress disorders and conditions associated with A-beta peptide aggregation” (The United States of America as represented by the …, priority 2008, dated 2019)

Legend:
[1] = system: DARPP-32; assay: DARPP-32 activity in neurons; format: cell-based; conditions: neurons from rat brain cells
[2] = system: nAChRs; format: cell-based, rat
[3] = system: fear-induced anxiety in mice; assay: Elevated plus maze after fear conditioning (fear-induced anxiety); format: in vivo
Description: Mice were trained for FC. After the retention test, the mice were tested for anxiety levels in the EPM. The number of entries into the open and closed arms and the exploratory behavior of the mice were determined using a video tracking software that measures movement in each section of the EPM.
To determine the effect of cotinine treatment on the levels of anxiety in the mice after re-exposure to a fear memory, we performed the same EPM test but 24 h after fear conditioning training (shock in the chamber) and immediately after re-exposure to the context (chamber), a reminder of the unconditioned aversive stimulus (the electric shock).

[4] = system: Arc; assay: BDNF-induced Arc expression in primary cortical neurons, Western blot; format: cell-based; conditions: BDNF plus cotinine 2 h, 7 DIV cortical neurons
Excerpt: Then cells were washed with PBS and disrupted by sonication in lysis buffer. Cell extracts were separated by SDS-PAGE and analyzed by Western blot with antibodies against Arc and β-tubulin, which was used as a control (FIG. 16B). The histogram represents the mean±SEM of experiments performed in triplicate. […] BDNF, brain-derived neurotrophic factor.

[5] = system: rat cortical cells exposed to Aβ1-42; assay: Aβ toxicity assay, MTT cell viability; format: cell-based
Description: Primary cortical embryonic rat neurons were incubated with 5 μM Aβ in the presence or absence of various concentrations cotinine for […] as described (Echeverria et al. (2005)). Cell viability was assessed using the MTT assay (Sigma). As an alternative approach cell viability after exposure to Aβ and cotinine was assessed using the vital dye calcein-AM (green fluorescence) to stain live cells and propidium iodide to stain dead cells. MTT values were normalized to control values considered 100%.
It has been discovered that cotinine protects brain cortical cells against the toxicity of the Amyloid beta peptide. The cortical cells were exposed to 5 microM Aβ for 24 hours and 48 hours and analyzed for cell viability using two viability tests. Cell viability was quantified by MTT and propidium iodide (PI) and calcein-AM staining assays. MTT assay measures the mitochondrial conversion of the tetrazolium salt MTT (3-(4,5-dimethylthiazol-2-yl)-2,5-diphenyl tetrazolium bromide) to formazan. To perform the MTT assay the cell culture medium was replaced with medium containing MTT (0.5 mg/mL). Following 1-4 h of incubation at 37° C., MTT formazan crystals were dissolved in DMSO and absorbance at 570 nm was measured. Absorbance values are a measure of cell viability. MTT results are expressed as percentage of vehicle treated controls. MTT assays were performed by measuring the levels of formazan after dissolving the precipitates in DMSO. The double calcein—AM and PI staining, involves staining with PI (a fluorescent nucleic acid dye used for the staining of dead cells) and calcein-AM a compound that inside of live brain cells, is converted to the green fluorescent compound calcein. After 30 minutes of incubation of the cells with these compounds were washed and analyzed by fluorescence microscopy. […] Cotinine inhibits Abeta oligomerization and prevents its toxicity on cortical neurons.
Embryonic rat cortical neurons were cultured following the protocol described (Brewer (1995)) but using embryonic cortical tissues obtained from Brain Bits LLC (Springfield, Ill., USA). The brain tissues were dissociated by 0.05% (v/v) trypsin digestion and dissociated by repeated passages through a pipette tip. Cortical cells (2×10^5 cells, 1,250 cells/mm^2) were plated in Neurobasal E medium, supplemented with 2% B27, and 1 mM Glutamax and plated onto 20-mm tissue culture wells coated with poly-D-lysine (0.1 mg/ml). Then cortical cells were incubated at 37° C. in a humidified incubator with 95% air/5% CO2 for 7-10 days, before being used for cell viability and protein expression analysis.
For the Aβ neurotoxicity assay, after 7 days in vitro (DIV) the conditioned media of cortical cells was replaced with Neurobasal E medium, supplemented with 2% B27 without antioxidants (B27-AO; Invitrogen, Carlsbad, Calif.) for 2 h. […]
Cell viability was quantified by MTT and propidium iodide (PI) and calcein-AM staining. […] Following 1-4 h incubation at 37° C., MTT formazan crystals were dissolved in DMSO and absorbance at […] was measured. MTT results are expressed as a percentage of vehicle-treated controls.
To investigate the effect of cotinine on Aβ neurotoxicity, rat cortical cells were grown in conditions that permitted us to obtain a neuron-enriched culture (around 95% neuron and 5% glial cells) for 7-10 days. […] After 24 h, cell survival was assessed by using MTT and PI and calcein-AM cell viability assays. […]

[6] = system: fear memory in mice; assay: Contextual fear conditioning, freezing behavior; format: in vivo
Description: Mice (n=8, by condition) were treated with vehicle or cotinine (1 and 5 mg/kg/day) for 8 days and then subjected to Fear conditioning training as described. After 24 hours (h) mice were tested for freezing behavior when re-exposed to the same context (the chamber) every day for […].
To study the effect of cotinine on contextual fear memory, we pretreated mice with vehicle or cotinine at 1 and 5 mg/kg/day for 8 days. After this time, mice were trained for contextual fear conditioning (FC). Briefly, mice were trained to associate the context (the chamber) with an aversive unconditioned stimulus (1 mA foot shock for 2 seconds). After the FC training, the mice were re-exposed to the context every day for 7 consecutive days. The mice were treated daily with vehicle or cotinine at 1 and 5 mg/kg during the FC training and re-exposure to the context. The fear memory of the mice expressed as freezing behavior was assessed each day after re-exposure to the context. The fear memory after 24 h of the FC training is considered a measure of retention of the fear memory. The reduction of fear memory expressed as a reduction in the freezing behavior after the retention trial is evaluated as the extinction of the fear memory.

## CN1C(=O)CC[C@H]1c1cccnc1 [cotinine]
[1]
  activity of DARPP-32: increases the activity of DARPP-32
[2]
  neuroprotective actions in presence of nAChR antagonists alpha-Bungarotoxin or mecamylamine: not affected
[3]; cotinine 1 mg/kg, p=0.0060
  difference in time in the closed arms, untreated compared with cotinine (EPM after FC): highly significant
[3]; cotinine 1 mg/kg, p=0.0101
  time in the open arms, vehicle compared with cotinine (EPM after FC): significantly less time in the open arms
[3]; cotinine 1 mg/kg, p=0.0145
  time exploring, vehicle compared with cotinine (EPM after FC): significantly less time exploring
[3]; cotinine 5 mg/kg, p=0.0025
  time exploring, vehicle compared with cotinine (EPM after FC): significantly less time exploring
[3]; cotinine 5 mg/kg, p=0.0111
  difference in time in the closed arms, untreated compared with cotinine (EPM after FC): highly significant
[3]; cotinine 5 mg/kg, p=0.0545
  time in the open arms, vehicle compared with cotinine (EPM after FC): no significant differences
[4]
  BDNF-induced expression of Arc: enhances the BDNF-induced expression of Arc
[5]; 5 μM Aβ + 10 μM cotinine, 24 h, 7 DIV cortical cells, Aβ alone 76%
  cell survival, % of vehicle-treated control cells (MTT): 85%
[5]; Aβ pre-incubated 3 h at 4° C. without cotinine, then added to media containing 10 μM cotinine
  effect on Aβ neurotoxicity when cotinine is added after pre-aggregation of Aβ: not able to block Aβ neurotoxicity
[5]; Aβ pre-incubated with 10 μM cotinine 3 h at 4° C.
  increase in cell viability versus Aβ alone: 22%
[5]; Rattus norvegicus, Aβ pre-incubated with 10 μM cotinine 3 h at 4° C., then 24 h on cells, Aβ alone 66%±3.6
  viability at 10 µM: 87.3%
[5]; added together with 5 μM Aβ, 24 h
  lowest cotinine concentration protecting cortical cells against Aβ toxicity (MTT): 1 µM
[6]; cotinine 1 mg/kg/day, 24 h after FC training, p=0.0191
  freezing in the retention test versus vehicle: significantly lower percentage of freezing
[6]; cotinine 5 mg/kg, day 6 of re-exposure, p=0.0218
  freezing in the extinction test versus vehicle: significantly lower percentage of freezing
